Experiment: gradient 5% acetonitrile 3 min, to 50% in 2 min, to 85% in 15 min, held 3 min, 100 µL/min
Settings: column: Zorbax Extend-C18 2.1 x 50 mm; eluents: water / acetonitrile, 0.1% formic acid
Summary of the method: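 Retention times come from adduct peaks that were picked computationally and then checked by hand. The standards, pure and pooled in mixtures of ~100 molecules, were run on a Zorbax Extend-C18 column (2.1 × 50 mm, 1.8 μm) at 100 μL/min with water and acetonitrile, each with 0.1% formic acid. Detection was by quadrupole time-of-flight mass spectrometry in positive and negative ionization mode, with a dead volume of 40 μL and a dwell volume of 900 μL.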

SMILES | RP-LC retention time
Cc1ccc(C)c(N2CCN(C(=O)c3cc(C)n4nccc4n3)CC2)c1 | 986 s
CCOc1ccc(-c2noc(CN3N=NC4C(=O)N(c5ccc(C)c(F)c5)C(=O)C43)n2)cc1OC (centres undefined) | 801 s
CCNC(=O)CN1C(=O)CCSc2ccccc21 | 664 s
CC1=C(c2ccc(F)cc2)S(=O)(=O)N=C1N1CCCN(C(=O)c2ccoc2)CC1 | 752 s
CCc1c(C2CCN(C(=O)c3cc4ccccc4[nH]3)CC2)noc1N | 774 s
COc1cc(=O)c(C(=O)N2CCC(C(N)=O)CC2)nn1-c1ccc(C)cc1 | 604 s
CCN1C(=O)c2ccccc2Oc2ccc(C(=O)N3CCC4(CC3)OCCO4)cc21 | 770 s
Cc1ccc(NC(=O)c2c(C)oc3nc(C)nc(N4CCCC4)c23)cc1 | 774 s
COc1ccc(N2CCN(c3ncc(S(=O)(=O)c4ccccc4)c(N)n3)CC2)cc1 | 848 s
O=C(Cc1cc(-c2ccc(F)cc2)on1)NCCc1c[nH]c2ccccc12 | 824 s
O=C(NCc1ccco1)C1CCN(c2nc3ccc(-c4cncnc4)nc3s2)CC1 | 743 s
O=C(NCCN1CCN(C(=O)c2cccs2)CC1)c1ccc2nsnc2c1 | 550 s
COC(=O)c1c(-c2ccccc2)noc1NCc1ccc(OC)cc1OC | 1070 s
CCc1ccc(NC(=O)Cn2c(N3CCOCC3)nc(C)cc2=O)cc1 | 711 s
Cc1cc(C)n(Cc2nc(-c3ccc(NC(=O)Cc4ccc(Cl)cc4)cc3)oc2C)n1 | 997 s
Cc1ccc2c(Cl)c(C(=O)N3CCN(c4ccccn4)CC3)sc2c1 | 726 s
C=CCN1C[C@@H](C)N([C@H](c2ccc(C(=O)N(CC)CC)cc2)c2cccc(OC)c2)C[C@@H]1C | 770 s
O=C(NCCN1CCOCC1)C(=O)Nc1ccccc1Cl | 549 s
CCn1cc(-c2nc(C(=O)Nc3ccc(C)cc3F)cs2)c2cccnc21 | 983 s
CC(C)c1noc(C2Cc3ccccc3N2C(=O)Nc2ccc3c(c2)OCCO3)n1 (centres undefined) | 936 s
CCN1C(=O)c2ccccc2Oc2ccc(C(=O)NC3CCCCCC3)cc21 | 1050 s
O=C(NCCCS(=O)(=O)N1CCN(c2ncccn2)CC1)c1ccncc1 | 568 s
CCOC(=O)c1c(C)[nH]c(CCC(=O)NCc2ccc(SC)cc2)c1C | 714 s

SMILES | RP-LC retention time
CCc1cccc(NC(=O)Cn2nc3n(c2=O)CCCCC3)c1 | 722 s
CC1(C(=O)NCc2ccc(Cl)cc2)CN(S(C)(=O)=O)CC(=O)N1CCc1ccccc1 (centres undefined) | 906 s
Cc1ccc(-c2csc(-c3cc4c([nH]c3=O)CC(C)(C)CC4=O)n2)cc1 | 994 s
CCc1nnc2nc(N3CCN(C(=O)C(C)Oc4ccccc4)CC3)cc(C)n12 (centres undefined) | 622 s
CCn1ccc2cc(S(=O)(=O)N3CCCN(C(=O)NC4CCCCC4)CC3)ccc21 | 936 s
COc1ccc(C2CC(=O)N(CC(=O)NCC3CCCO3)c3ccccc3S2)cc1 (centres undefined) | 826 s
CN1c2cc(F)ccc2C(=O)NC12CCN(C(=O)NCc1ccc(F)cc1)CC2 | 754 s
COc1ccc(-c2noc(C3CC(=O)N(c4cc(C)ccc4C)C3)n2)cc1 (centres undefined) | 988 s
COC(=O)c1cc(OCc2cccc(OC)c2)c2cc(OC)ccc2n1 | 901 s
CCN1CCN(CCCNC(=O)c2nnc(-c3ccc(S(=O)(=O)N4CCCC4)cc3)o2)CC1 | 581 s
COc1ccc(C(=O)N2C[C@@H]3C[C@H](NC(=O)c4cccs4)[C@H]2C3)c(OC)c1 | 701 s
CCN(C(=O)Cn1nc2n(c1=O)CCCCC2)c1ccccc1 | 709 s
CCN1C=C(C(=O)OCc2ccc(Cl)cc2)C(C)=NS1(=O)=O | 1060 s
CCOC(=O)c1c(S(=O)(=O)N2CCC(C(=O)Nc3ccc(F)cc3C)CC2)c(C)n(CC)c1C | 885 s
COc1ccc(C2(C(N)=O)CC2)cc1 | 682 s
Cc1cc(C)c2[nH]c3c(c(=O)c2c1)CN(CC(=O)NCc1ccc(F)cc1)CC3 | 620 s
Cc1ccnc(Nc2nc(-c3cc(C)ccc3C)cs2)c1 | 882 s
N#Cc1ccsc1NC(=O)c1cccc(Cl)c1 | 861 s
CCOCCCNC(=O)c1c2c(cn(-c3ccc(F)cc3)c1=O)C(=O)CC(C)(C)C2 | 859 s
O=C(Nc1ccc(N2CCOCC2)cc1)c1cn2c(n1)COCC2 | 600 s
COc1ccc(CNC(=O)Cn2c(=O)c3cc(-c4cccs4)nn3c3ncccc32)cc1 | 816 s
O=C1CCCC2=C1C(c1ccco1)N(C(=O)CCC(=O)N1CCOCC1)c1ccccc1N2 (centres undefined) | 648 s
Cc1noc(C2CN(C(=O)c3ccc(F)c(F)c3)CC23CCOCC3)n1 (centres undefined) | 710 s

SMILES | RP-LC retention time
CCCC(C)C(=O)NC1CCN(C2=NS(=O)(=O)C(c3ccc(C)c(C)c3)=C2C)CC1 (centres undefined) | 927 s
O=C(CCc1nc2sc3c(c2c(=O)[nH]1)CCCCC3)N1CCN(C2CCCCC2)CC1 | 610 s
CC(C)(C)OC(=O)COc1cc(O)c2c(=O)cc(-c3ccccc3)oc2c1 | 1210 s
Cc1ccc(-c2nc3ncccn3c2Nc2cccc(Cl)c2C)cc1 | 915 s
CCC(Sc1nnc2c3ccccc3n(C(C)C)c2n1)C(=O)Nc1nc(-c2ccccc2)cs1 (centres undefined) | 1310 s
CCOc1ccc(NC(=O)c2cnc(N3CCN(C)CC3)nc2N)cc1 | 602 s
Cc1ccc(C(=O)NCc2ccc3c(c2)ncn3C(C)C)s1 | 614 s
COc1cc(NC(=O)N2CCCC(Cn3c(C)nc4cccnc43)C2)cc(OC)c1 (centres undefined) | 639 s
O=C(COc1ccccc1)Nc1ccc2c(c1)N(C(=O)c1ccco1)CCC2 | 899 s
CCOc1ccc(S(=O)(=O)N2CCCC(C(=O)NCCc3ccc(OC)c(OC)c3)C2)cc1 (centres undefined) | 884 s
CCn1c(C(=O)NC(C)CCc2ccccc2)cc2sc(Cl)cc21 (centres undefined) | 1270 s
COc1cc(C(=O)N2CCN(c3cc(=O)n(C)c(=O)n3C)CC2)cc(OC)c1OC | 630 s
Cn1c(CNC(=O)C2CCC2)nc2c1CN(C(=O)Cc1ccc(Cl)cc1)CC2 | 623 s
CCCn1nnc(NCc2ccc(-c3ccc(Br)cc3Br)o2)n1 | 1230 s
CC(C)Cc1ccc(S(=O)(=O)NC2CCCN(c3ccc(=O)n(CC4CC4)n3)C2)cc1 (centres undefined) | 1050 s
Cc1ccc(CNC(=O)Cn2nc3c4cc(-c5cc(C)ccc5C)nn4ccn3c2=O)cc1 | 985 s
COc1ccc(SCC(=O)Nc2nnc(-c3ccno3)o2)cc1 | 672 s
Cc1ccc(CNC(=O)c2nc(-c3oc4c(C)cccc4c3C)no2)o1 | 1080 s
CCOc1ccc(Nc2c(-c3ccccc3)nc3cnccn23)cc1 | 877 s
Cc1cccc(N2CCN(C(=O)CCC(=O)N3CCCn4nc(-c5cccn5C)cc43)CC2)c1C | 968 s
CCCn1cc(-c2ccncc2)cc1C(=O)Nc1ccc(OC)c(OC)c1 | 654 s
COc1cccc(CNC(=O)Cn2c(C)cc(-c3nnc(C4CCC4)o3)c2C)c1 | 834 s
COc1cc(C)c(C(C)C)cc1S(=O)(=O)NCc1ccco1 | 594 s

SMILES | RP-LC retention time
O=C(Cc1cccs1)Nc1cccn2nc(C3CCC3)nc12 | 889 s
Cc1cc(C)cc(C(=O)NCc2ccc(N3CCOCC3)nc2)c1 | 628 s
O=C(Nc1ccccc1F)N1CC(Oc2cccc(-c3nc(-c4ccccc4)no3)c2)C1 | 1140 s
COc1cc(CN2C[C@@H](CO)[C@H](N(C)C)C2)ccc1OC(C)C | 554 s
CCOc1ccc(-n2c(N3CCN(C)CC3)nc3cc(C(=O)OC)ccc3c2=O)cc1 | 645 s
CCCNc1cc(N2CCC(CCC(=O)N3CCN(C(=O)OCC)CC3)CC2)ncn1 | 620 s
O=C(c1ccccc1Cl)N1CC2CC(C1)c1cccc(=O)n1C2 (centres undefined) | 596 s
O=C(Nc1nnc(C2CC(=O)N(c3ccc(F)cc3)C2)o1)c1ccccc1F (centres undefined) | 701 s
Cc1ccc(CNC(=O)Cn2c(N3CCCC3)nc(C)cc2=O)cc1 | 618 s
Cc1cc(C)cc(NC(=O)N2CCC(c3cc(N)on3)CC2)c1 | 728 s
CC(C)c1ccc(Sc2ccc(N3CCC(C(=O)NCCN(C)C)CC3)nn2)cc1 | 658 s
O=C(NCC1CCS(=O)(=O)C1)c1cc(-c2ccccc2)on1 (centres undefined) | 1010 s
Cc1ccccc1S(=O)(=O)N1CCC(n2cnnc2C2CC2)CC1 | 706 s
COCCc1nncn1C1CCN(S(=O)(=O)c2cccc(C(F)(F)F)c2)CC1 | 752 s
COc1ccc(-c2cc(N3CCC(NC(=O)c4ccc(N(C)C)cc4)C3)n[nH]2)cc1 (centres undefined) | 702 s
Cc1cc(Nc2ccc(NC(=O)Nc3ccccc3)cc2)nc(N2CCOCC2)n1 | 662 s
O=C(Nc1sc2c(c1C(c1cccnc1)N1CCN(c3ccccn3)CC1)CCCC2)c1ccco1 (centres undefined) | 676 s
O=C(NCCCc1ccccc1)C1CCCN(C(=O)Cc2cccc3ccccc23)C1 (centres undefined) | 944 s
Cc1nc(-c2ccc3c(c2)CCN3C(=O)COc2ccc(Cl)cc2)cs1 | 1080 s
COc1cccc(CCC(=O)N2CC3CN(S(=O)(=O)c4ccc(C)cc4)CC(C2)O3)c1 | 908 s

Source: the METLIN SMRT retention time set (Domingo-Almenara et al. 2019)
